Measurements taken from US8192962B2, “Processes for detecting toxic substances” (Daikin Industries, Ltd., priority 2001, dated 2012).

Test system: Mitochondria-located protein genes
Assay: DNA chip mRNA expression in yeast, mitochondria-located protein genes (Table 2)
Type: cell-based, Saccharomyces cerevisiae S288C
Conditions: cells incubated two hours with the chemical substance
Summary of the method: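 Cells were grown at 25° C. in YPD, treated at logarithmic phase for 2 h with a chemical at a concentration inhibiting growth but not causing death, and compared with untreated cultures. Labeled cDNA was hybridized to a DNA chip carrying all yeast genes, and the expression ratio was taken from scanner fluorescence.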

## Oc1cc(Cl)c(Cl)cc1Cl [(6), 2,4,5-trichlorophenol]
Yeast gene YAL039C
  The level of expressed mRNA in the presence of chemical substance/The level of expressed mRNA in the absence of chemical substance: 0.8
Yeast gene YBL022C
  The level of expressed mRNA in the presence of chemical substance/The level of expressed mRNA in the absence of chemical substance: 1.2
Yeast gene YBL030C
  The level of expressed mRNA in the presence of chemical substance/The level of expressed mRNA in the absence of chemical substance: 1.1
Yeast gene YBL038W
  The level of expressed mRNA in the presence of chemical substance/The level of expressed mRNA in the absence of chemical substance: 0.7
Yeast gene YBL099W
  The level of expressed mRNA in the presence of chemical substance/The level of expressed mRNA in the absence of chemical substance: 0.9
Yeast gene YBR003W
  The level of expressed mRNA in the presence of chemical substance/The level of expressed mRNA in the absence of chemical substance: 1.2
Yeast gene YBR044C
  The level of expressed mRNA in the presence of chemical substance/The level of expressed mRNA in the absence of chemical substance: 1.0
Yeast gene YBR091C
  The level of expressed mRNA in the presence of chemical substance/The level of expressed mRNA in the absence of chemical substance: 0.7
Yeast gene YBR122C
  The level of expressed mRNA in the presence of chemical substance/The level of expressed mRNA in the absence of chemical substance: 1.1
Yeast gene YBR185C
  The level of expressed mRNA in the presence of chemical substance/The level of expressed mRNA in the absence of chemical substance: 1.2
Yeast gene YBR221C
  The level of expressed mRNA in the presence of chemical substance/The level of expressed mRNA in the absence of chemical substance: 1.7
Yeast gene YBR251W
  The level of expressed mRNA in the presence of chemical substance/The level of expressed mRNA in the absence of chemical substance: 2.0
Yeast gene YBR282W
  The level of expressed mRNA in the presence of chemical substance/The level of expressed mRNA in the absence of chemical substance: 1.4
Yeast gene YCL057W
  The level of expressed mRNA in the presence of chemical substance/The level of expressed mRNA in the absence of chemical substance: 1.8
Yeast gene YCR046C
  The level of expressed mRNA in the presence of chemical substance/The level of expressed mRNA in the absence of chemical substance: 0.8
Yeast gene YCR083W
  The level of expressed mRNA in the presence of chemical substance/The level of expressed mRNA in the absence of chemical substance: 2.4
Yeast gene YDL067C
  The level of expressed mRNA in the presence of chemical substance/The level of expressed mRNA in the absence of chemical substance: 0.9
Yeast gene YDL181W
  The level of expressed mRNA in the presence of chemical substance/The level of expressed mRNA in the absence of chemical substance: 1.2
Yeast gene YDL198C
  The level of expressed mRNA in the presence of chemical substance/The level of expressed mRNA in the absence of chemical substance: 0.8
Yeast gene YDR079W
  The level of expressed mRNA in the presence of chemical substance/The level of expressed mRNA in the absence of chemical substance: 1.7
Yeast gene YDR178W
  The level of expressed mRNA in the presence of chemical substance/The level of expressed mRNA in the absence of chemical substance: 2.1
Yeast gene YDR231C
  The level of expressed mRNA in the presence of chemical substance/The level of expressed mRNA in the absence of chemical substance: 2.2
Yeast gene YDR258C
  The level of expressed mRNA in the presence of chemical substance/The level of expressed mRNA in the absence of chemical substance: 2.4
Yeast gene YDR298C
  The level of expressed mRNA in the presence of chemical substance/The level of expressed mRNA in the absence of chemical substance: 1.2
Yeast gene YDR347W
  The level of expressed mRNA in the presence of chemical substance/The level of expressed mRNA in the absence of chemical substance: 1.2
Yeast gene YDR377W
  The level of expressed mRNA in the presence of chemical substance/The level of expressed mRNA in the absence of chemical substance: 1.3
Yeast gene YDR529C
  The level of expressed mRNA in the presence of chemical substance/The level of expressed mRNA in the absence of chemical substance: 0.8
Yeast gene YEL024W
  The level of expressed mRNA in the presence of chemical substance/The level of expressed mRNA in the absence of chemical substance: 1.1
Yeast gene YEL039C
  The level of expressed mRNA in the presence of chemical substance/The level of expressed mRNA in the absence of chemical substance: 1.5
Yeast gene YER178W
  The level of expressed mRNA in the presence of chemical substance/The level of expressed mRNA in the absence of chemical substance: 2.5
Yeast gene YFL016C
  The level of expressed mRNA in the presence of chemical substance/The level of expressed mRNA in the absence of chemical substance: 1.3
Yeast gene YGL018C
  The level of expressed mRNA in the presence of chemical substance/The level of expressed mRNA in the absence of chemical substance: 0.4
Yeast gene YGL187C
  The level of expressed mRNA in the presence of chemical substance/The level of expressed mRNA in the absence of chemical substance: 1.1
Yeast gene YGL191W
  The level of expressed mRNA in the presence of chemical substance/The level of expressed mRNA in the absence of chemical substance: 1.6
Yeast gene YGR008C
  The level of expressed mRNA in the presence of chemical substance/The level of expressed mRNA in the absence of chemical substance: 2.9
Yeast gene YGR028W
  The level of expressed mRNA in the presence of chemical substance/The level of expressed mRNA in the absence of chemical substance: 1.5
Yeast gene YGR062C
  The level of expressed mRNA in the presence of chemical substance/The level of expressed mRNA in the absence of chemical substance: 0.9
Yeast gene YGR076C
  The level of expressed mRNA in the presence of chemical substance/The level of expressed mRNA in the absence of chemical substance: 1.2
Yeast gene YGR082W
  The level of expressed mRNA in the presence of chemical substance/The level of expressed mRNA in the absence of chemical substance: 1.1
Yeast gene YGR174C
  The level of expressed mRNA in the presence of chemical substance/The level of expressed mRNA in the absence of chemical substance: 1.4
Yeast gene YGR244C
  The level of expressed mRNA in the presence of chemical substance/The level of expressed mRNA in the absence of chemical substance: 2.6
Yeast gene YHR008C
  The level of expressed mRNA in the presence of chemical substance/The level of expressed mRNA in the absence of chemical substance: 1.0
Yeast gene YIL155C
  The level of expressed mRNA in the presence of chemical substance/The level of expressed mRNA in the absence of chemical substance: 1.4
Yeast gene YJL096W
  The level of expressed mRNA in the presence of chemical substance/The level of expressed mRNA in the absence of chemical substance: 1.0
Yeast gene YJL102W
  The level of expressed mRNA in the presence of chemical substance/The level of expressed mRNA in the absence of chemical substance: 1.6
Yeast gene YJL133W
  The level of expressed mRNA in the presence of chemical substance/The level of expressed mRNA in the absence of chemical substance: 0.5
Yeast gene YJL166W
  The level of expressed mRNA in the presence of chemical substance/The level of expressed mRNA in the absence of chemical substance: 0.7
Yeast gene YJL180C
  The level of expressed mRNA in the presence of chemical substance/The level of expressed mRNA in the absence of chemical substance: 1.3
Yeast gene YJR045C
  The level of expressed mRNA in the presence of chemical substance/The level of expressed mRNA in the absence of chemical substance: 1.2
Yeast gene YJR077C
  The level of expressed mRNA in the presence of chemical substance/The level of expressed mRNA in the absence of chemical substance: 0.9
